Laboratory results: patent US8901120B2, “Substituted N-phenylpyrimidin-2-amine analogs as inhibitors of the Axl kinase” (University of Utah Research Foundation, priority 2011, dated 2014)

How the values were obtained:
[1] = tested on: Axl and the related members of the TAM family of kinases; test: Kinase profiling, Axl and TAM family; format: biochemical; details: 200 nM test compound, ATP at Km apparent, FIG. 9
Experimental: (§1) The specificity of kinase inhibition was assessed with a representative compound, 2-((5-chloro-2-((4-((4-methylpiperazin-1-yl)methyl)phenyl)amino)pyrimidin-4-yl)amino)-N,N-dimethylbenzenesulfonamide, by determining the activity of this test compound against a panel of protein kinases. Kinase profiling was performed against a focus panel of kinases relevant to PDK1 signaling and other known oncogenic kinases. The panel comprised 75 distinct protein kinases, and data are shown for a subset of 39 kineases (see FIG. 9). […] The results from this screen confirmed good activity against Axl and the related members of the TAM family of kinases.

[2] = tested on: sAxl in PL45 and PSN-1 cells; test: Release of sAxl into cell culture media (ELISA); format: cell-based, Human; details: PL45 and PSN-1, serum-free, 24 hours, vs vehicle, FIG. 11
Experimental: Cell lines were plated and incubated overnight as described above. The following day the media was changed to serum-free and the cells were treated as indicated as indicated. After 24 hours, the media from the treatments were analyzed for sAxl (R&D Systems, Minneapolis, Minn.).
The proteolytic processing of the extracellular domain of the Axl receptor is a known event downstream of Axl activation and results in the release of soluble Axl (sAxl) into the cell culture media (in vitro) or into the blood stream (in vivo).

[3] = tested on: phosphorylated Akt (Ser473); test: GAS6-Axl signalling assay, phosphorylated Akt; format: cell-based; details: Homo sapiens; PSN-1 and PL45 cells, in the presence of Gas6, FIG. 8A; read-out: IC50, inhibition of phosphorylated Akt levels
Experimental: (§2) Cell lines were seeded in 1 ml of the appropriate growth media with 10% FBS into 6-well plates (8×10^5 cells/well) and incubated overnight at 37° C. and 5% CO2. The following day, serum-containing growth media was replaced by serum-free media and incubated for 4 hr, and then test compounds were added to the cells at desired concentrations and incubated for an additional 2 hr. To stimulate Axl signaling, Gas6 was added to each well to a concentration of 3 μg/ml and incubated for 10 min. The cells were lysed immediately and the lysates used in a multiplex ELISA kit (Meso Scale Discovery, Gaithersburg, Md.) to quantitate the phosphorylated AKT (at position Ser473′ “pAkt”) or phosphorylated Axl (“pAxl”).
To further explore the activity of a representative compound, 2-((5-chloro-2-((4-((4-methylpiperazin-1-yl)methyl)phenyl)amino)pyrimidin-4-yl)amino)-N,N-dimethylbenzenesulfonamide, of inhibiting Axl in a cell line system, the effect of the test compound on Akt phosphorylation (at the Ser473 position) was determined. The effect on Akt phosphorylation was assessed in two cell-lines (see FIG. 8A): PSN-1 and PL45. The overall method was as described above. Briefly, the cells were treated as indicated and lysates from these treatments were analyzed for phosphorylated Akt (Ser473) as described above.

[4] = tested on: Aurora family of kinases; test: Kinase profiling, Aurora family; format: biochemical; details: 200 nM test compound, ATP at Km apparent, FIG. 9
Experimental: as §1

[5] = tested on: pancreatic cancer cells; test: Cell migration assay (collagen I Platypus plates); format: cell-based; details: 18 hours migration, with Gas6, FIG. 10
Experimental: In this system, a gel prevents attachment of cells in a circle. The gel dissolves by exposure to the media, allowing cells to migrate into the open area. Cells migrated for 18 hours before fixation and staining. The extent of cell migration was determined by measuring the open surface in the inner circle of the well.

[6] = tested on: JAK family of kinases; test: Kinase profiling, JAK family; format: biochemical; details: 200 nM test compound, ATP at Km apparent, FIG. 9
Experimental: as §1

[7] = tested on: PSN-1 cells; test: Tumor xenograft animal model; format: in vivo, mouse; details: PSN-1 xenograft, 50 mg/kg oral gavage daily (M-F)
Experimental: The in vivo activity of the foregoing compound was assessed in a tumor xenograft model in mouse. PSN-1 cells were cultured as described above and harvested. Cells (2 to 5×10^6 in 100 μl culture media) were implanted subcutaneously in the right hind flank of athymic nu/nu nude mice (5 to 6 weeks old, 18-22 g). Following implantation, the tumors are allowed to grow to 100 mm^3 before the animals are randomized into treatment groups (vehicle and test compound). Day 1 of study corresponds to the day that the animals receive their first dose of test compound (2-((5-chloro-2-((4-((4-methylpiperazin-1-yl)methyl)phenyl)amino)pyrimidin-4-yl)amino)-N,N-dimethylbenzenesulfonamide). The vehicle for this study was 5% EtOH, 45% PEG 400, and 50% water, and animals were dosed with either vehicle or test compound dissolved in this vehicle by oral gavage. The dose level was 50 mg/kg and dosing frequency was daily (M-F) with the test compound with recovery on the weekend.
The test compound was efficacious in limiting tumor growth, achieving about a 50% reduction in tumor volume at this dose level during this dosing period (FIG. 15).

[8] = tested on: phosphorylated Axl (pAxl); test: GAS6-Axl signalling assay, autophosphorylation of Axl; format: cell-based, Human; details: pancreatic cancer cell lines, GAS6 stimulation, FIG. 8B
Experimental: as §2

[9] = Pharmacokinetics after oral dosing; format: in vivo; details: mouse, mice, 50 mg/kg orally, plasma
Experimental: Mice were dosed orally with 50 mg/kg of the title compound. Blood was collected at the indicated time points (see FIG. 16).

CN1CCN(Cc2ccc(Nc3ncc(Cl)c(Nc4ccccc4S(=O)(=O)N(C)C)n3)cc2)CC1 [2-((5-chloro-2-((4-((4-methylpiperazin-1-yl)methyl)phenyl)amino)pyrimidin-4-yl)amino)-N,N-dimethylbenzenesulfonamide]
activity against Axl and TAM family kinases in kinase profiling [1]: good activity | reduction in sAxl levels in conditioned media [2]: significant dose-dependent reductions | IC50 [3]: ~300 nM | activity against Aurora family kinases in kinase profiling [4]: significant activity | inhibition of Gas6-induced migration and invasion [5]: inhibited | activity against JAK family kinases in kinase profiling [6]: significant activity | impact on body weight ([7]; FIG. 14): no apparent impact | reduction in tumor volume ([7]; FIG. 15): ~50% | inhibition of autophosphorylation of Axl [8]: dramatically inhibited | AUC(0-t) [9]: 507 ng·h/mL | Cmax [9]: 604 ng/mL | Tmax [9]: 15 min | half-life [9]: 66 min
